Measurements as given in paper PMC11148772, “Inhibition of protein translational machinery in triple-negative breast cancer as a promising therapeutic strategy” (Cell Reports Medicine, 2024).
Several values for one entry are separate records, joined by “and”; a condition that tells them apart may be missing. Identical values can stand only once.

What was measured:
[1] = target: T1, PDE4D2 (Homo sapiens, UniProt Q08499); test: Enzyme assay (in vitro pharmacology); format: biochemical; settings: 10 μM
T1 construct: purchased Eurofins Discovery
Protocol: (§1) The compound SU056 was tested for its radioligand binding and enzyme and uptake characteristics by Eurofins lab services (Eurofins discovery). The screening was performed at 10 μM of SU056. The binding was calculated as % inhibition of the binding of a radioactively labeled ligand specific to each target. The SU056 enzyme inhibition effect was determined as % inhibition of control enzyme activity.

[2] = target: T2, COX2 (Homo sapiens, UniProt P35354); test: Enzyme assay (in vitro pharmacology); format: biochemical; settings: 10 μM
T2 construct: purchased Eurofins Discovery
Protocol: as §1

[3] = tested on: 4T1 lung metastasis; test: Orthotopic 4T1 model, lung metastasis; format: in vivo, mouse; settings: orthotopic 4T1, 50 mg/kg, lung metastatic nodules counted
Description: Data S2. Effect of SU056 treatment on body weight, metastatic potential and pharmacokinetic profiling of SU056, related to Figure 2 and 3
Human, mouse and PDX models of TNBC were used for tumor xenograft studies. SU056 treatment was started when tumors reached around ~25-50 mm3 and continued until the experiment reached its 3-week endpoint. Body weight was monitored throughout the study to understand any change in dietary pattern. Body weights of A) MDA-MB-231, B) MDA-MB-468, C) 4T1, D) EMT6, E) CA1616-PDX-TNBC, F) CA1262-PDX-TNBC, G) MA2821-PDX-TNBC and H) SUTI151-PDX-TNBC over time. I) Tumor volume, J) Tumor weight and K) The bar graph represents lung metastatic nodules in 4T1 orthotopic models. L) Representative images of lungs at the end of the treatment cycle. M) Mice were treated with 20 mg/kg SU056 orally. Cmax (maximum serum concentration), Tmax (time to reach Cmax), and T1/2 (elimination half-life of compound). N) Human liver microsomes were used for the purpose of metabolic profiling.
Data are shown as mean ± SD. Error bars represent ± SD.
*p < 0.05, **p < 0.01, ***p < 0.001 and ****p < 0.0001. Significant difference compared with respective control by Student’s t test or one-way ANOVA followed by Dunnett’s test.

[4] = target: kinases; test: KINOMEscan multi-kinase profiling; format: binding; settings: 10 μM
Protocol: The multi-kinase inhibition profile of SU056 was determined via the KINOMEScan screening platform (Eurofins discovery). The screening was performed at 10 μM of SU056. The kinase dendrogram was developed using the TREEspot interaction maps online application (Eurofins Discovery). The results are expressed as residual activity (% Control).

[5] = Pharmacokinetics study; format: in vivo, mouse; settings: 20 mg/kg oral
Protocol: Female C57BL/6J mice of 6–7 weeks were purchased from Jackson Laboratory and housed under standard laboratory conditions. SU056 (20 mg/kg) was given by oral gavage. Blood (200–300 μL) was collected retro-orbitally in EDTA-treated tubes after 15, 30, 60, 120, 240 and 360 min of SU056 administration. Blood plasma collected by centrifugation (7000 rpm; 10 min). The concentration of SU056 in plasma was analyzed using an Agilent 6490 iFunnel triple quadrupole mass spectrometer, coupled with an Agilent 1290 infinity II UHPLC. A ZORBAX C18 analytical column (Eclipse Plus, 2.1 × 50 mm, 1.8 μm particle size) was employed in the study. To create the mobile phase, a solution was prepared with 60% water buffered with 0.1% formic acid and 4mM ammonium formate, along with a solution of 40% acetonitrile buffered with 0.1% formic acid. The mobile phase flow rate was set to 0.4 mL/min and the column temperature was adjusted to 30°C. Positive ion mode was selected for operating the electrospray ionization source. Mass spectrometer parameters were optimized as: source temperature 550°C, nebulizer gas (nitrogen) 20 psi, ion spray (IS) voltage 5000 V, collision energy 21 V. Multiple reaction monitoring (MRM) method was used for the detection of SU056 and an internal standard (IS), 4-(2-hydroxyethyl)-6-methoxy-9-phenyl-4,9-dihydrofuro[3,4-b]quinolin-1(3H)-one, a similar analogue of SU056. […] The calibration curve, created with known concentrations of SU056 and IS, enabled the calculation of unknown concentrations of SU056 in plasma at different time points. A 5 μL plasma was taken from each sample and mixed with a 10 μL of IS solution and 990 μL of MS-grade acetonitrile then vortexed for 30 s followed by a 5 min incubation at RT. The mixture was subjected to centrifugation at 11,000 RPM for 15 min at 4°C, leading to the collection of the supernatant which was further cleaned by re-centrifugation. The concentration of SU056 was determined using the HPLC/MS MRM method with each of the three protein-free plasma fractions.[32]

[6] = mouse, female C57BL/6J mice, plasma

T2 sequence (P35354 18-604): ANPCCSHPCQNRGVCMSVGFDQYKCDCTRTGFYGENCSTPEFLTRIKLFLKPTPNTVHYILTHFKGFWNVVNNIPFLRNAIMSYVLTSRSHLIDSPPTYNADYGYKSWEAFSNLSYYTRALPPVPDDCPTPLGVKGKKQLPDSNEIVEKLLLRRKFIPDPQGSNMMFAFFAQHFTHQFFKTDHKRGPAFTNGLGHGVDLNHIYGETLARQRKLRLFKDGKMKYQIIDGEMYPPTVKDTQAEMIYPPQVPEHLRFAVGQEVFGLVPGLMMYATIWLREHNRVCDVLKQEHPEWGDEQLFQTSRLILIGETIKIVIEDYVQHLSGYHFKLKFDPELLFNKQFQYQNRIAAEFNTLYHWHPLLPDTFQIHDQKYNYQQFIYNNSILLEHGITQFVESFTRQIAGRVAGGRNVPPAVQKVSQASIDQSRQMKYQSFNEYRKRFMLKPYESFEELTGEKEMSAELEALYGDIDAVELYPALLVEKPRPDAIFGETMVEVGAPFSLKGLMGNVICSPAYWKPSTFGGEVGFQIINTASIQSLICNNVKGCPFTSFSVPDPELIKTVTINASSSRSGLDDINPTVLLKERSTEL
T1 sequence (Q08499 303-809 limits assumed): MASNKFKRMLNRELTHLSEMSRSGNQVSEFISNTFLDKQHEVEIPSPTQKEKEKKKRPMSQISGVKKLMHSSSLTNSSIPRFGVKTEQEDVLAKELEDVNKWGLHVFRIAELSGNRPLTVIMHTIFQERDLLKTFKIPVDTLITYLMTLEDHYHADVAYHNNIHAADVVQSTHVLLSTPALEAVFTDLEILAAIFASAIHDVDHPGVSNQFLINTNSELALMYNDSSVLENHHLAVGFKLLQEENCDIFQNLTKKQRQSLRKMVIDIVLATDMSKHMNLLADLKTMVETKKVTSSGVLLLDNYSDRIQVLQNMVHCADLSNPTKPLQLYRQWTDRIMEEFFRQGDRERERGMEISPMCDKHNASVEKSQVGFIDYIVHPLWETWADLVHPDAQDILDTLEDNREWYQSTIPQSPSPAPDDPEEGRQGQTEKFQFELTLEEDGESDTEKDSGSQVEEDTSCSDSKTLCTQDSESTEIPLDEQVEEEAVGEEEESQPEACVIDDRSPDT

For O=C1OCC2=C1C(c1cccc(F)c1)c1cc3c(cc1N2CCO)OCO3 (centres unmarked) [SU056, 9-(3-fluorophenyl)-5-(2-hydroxyethyl)-6,9-dihydro-[1,3]dioxolo[4,5-g]furo[3,4-b]quinolin-8(5H)-one], the enzyme activity [1] was “inhibits”, the enzyme activity [2] was “inhibits” and the “decrease in lung metastasis compared to control” value [3] was 65.5%. For the same compound, the kinase activity inhibition [4] was “does not inhibit”, the “time a cytotoxic concentration remained in the plasma” value ([5]; mice) was “up to 6 h” and the half-life ([5]; female, C57BL/6J, mouse, plasma, po, 20 mg/kg, female C57BL/6J mice, plasma, read-out: half-life (T1/2)) was ~60 min. For the same compound, the Cmax [5, 6] was 9980 ng/mL and 27 µM and the Tmax [5, 6] was 15 min.
